From patent US20240050406A1, “COMPOSITION COMPRISING OXIRACETAM FOR PREVENTING OR TREATING MUSCULAR DISEASE” (KSB TUGEN INC., priority 2021, published 2024)

What was measured:
C2C12 myotubes [1] = assay: Myotube diameter in doxorubicin-induced cachexia cell model (Experimental Example 8); assay type: cell-based, mouse; conditions: doxorubicin 500 nM 48 h with or without oxiracetam 0.01, 0.1, 1, 10 and 30 μM; relative to control
Method: A mouse-derived C2C12 cell line was provided from the American Type Culture Collection (ATCC, CRL-1772; Manassas, VA, USA) and cultured at 37° C. in 5% CO2. In the proliferation phase of the cells before differentiation, high concentration glucose Dulbecco's modified Eagle's medium (DMEM) containing 1% penicillin/streptomycin and 10% fetal bovine serum (FBS) medium were used, and in the differentiation induction, the FBS medium was replaced with a 2% horse serum (HS)-containing medium. The C2C12 myoblasts were seeded into a 96 well culture plate and a 6 well culture plate at 2×10^5/well and 5×10^3/well, respectively, and cultured at 37° C. in a CO2 incubator. […]
Two days after anticancer agent and oxiracetam treatment, the anticancer agent-treated group (Doxorubicin), the oxiracetam-treated groups (Oxiracetam 0.01 μM, 0.1 μM, 1 μM, 10 μM and 30 μM), and the control (control) were photographed using an optical microscope at a room temperature, and the diameter (Diameter, %) of a myotube in each group was measured and compared.
(§1) Statistical processing was performed using GraphPad Prism (GraphPad Software Inc., San Diego, CA, USA). The results of each repeated experiment were expressed as mean±standard error of mean, and analyzed using the analysis of variance (Tukey's test), and statistical significance was acknowledged when the P-value was 0.05 or less.

[2] = tested on: animal model in which muscular atrophy is induced by dexamethasone; assay: Comparison with dementia drugs in dexamethasone muscular atrophy model (Experimental Example 5); assay type: in vivo, ICR mice
Excerpt: For an experimental group in the present invention, oxiracetam having a structure of Formula 1 was purchased from Tokyo Chemical Industry (Japan; Product No. 00398, CAS RN:62613-82-5, purity: 96%) and used. Mirtazapine and olanzapine were purchased from Tokyo Chemical Industry (Japan, Product Nos. M2151, 00393, purity: 96%) and used.
As experimental animals, 7-week-old male ICR mice were purchased and used. Until the day of the experiment, general feed (EEGJ30060: Cargill Agri Purina, Seongnam, Korea) and water were sufficiently supplied to the experimental animals, and the animals were acclimated for 1 week under an environment of a temperature of 23±2° C., a humidity of 55±10%, and a light-dark cycle of 12 hours-12 hours and used in the experiment.
After the acclimation period for the experimental animals, to create a muscular atrophy model, the mice were randomly divided into groups of 7 animals, such as a control (vehicle, n=7), a dexamethasone-treated group (n=7), and a drug-administered group (n=7). The groups except for the control were intraperitoneally injected dexamethasone at a dose of 10 mg/kg from day 7 to day 21 for 14 days. In the case of the drug-administered group, 7 days before the intraperitoneal administration of dexamethasone, the drug was orally administered using a Zonde needle at a dose of 30 or 10 mg/kg/day once a day for 21 days. During the same period, the control was administered no drug, and 100 μL of normal saline was orally administered at a time. To the dexamethasone-treated group (dexamethasone excipient, CMC), instead of the drug, 100 μL of a 0.5% carboxymethylcellulose (CMC) solution was administered. This is to set the effect on the excipient as a blank.
To measure grip strength, a grip strength test was performed. The maximum force presented when the forelimbs of an animal model of each group could no longer hold the rod by pulling the tail horizontally while holding the tail of the animal model and holding the rod of a device with both front paws was considered to be grip strength (N). Grip strength adaptation training was performed at least three times before drug administration. After measurement before drug administration (day 0) and on day 20 after drug administration began, grip strength variation (%) after drug administration began (day 20) with respect to that before drug administration (day 0) was calculated.
The lean body mass of the gastrocnemius muscle (GS) and the lean body mass of the tibialis anterior (TA) for each group were measured every 7 days. Specifically, animal models of each group were anesthetized using 3% isoflurane, fixed to a photographing bed and then photographed. During photographing, the respiratory rates and body temperatures of the animal models were measured with an animal monitoring system (SA Instruments, USA).
The whole body of the animal model was photographed through dual energy X-ray absorptiometry (DEXA) using iNSiGHT VET DXA (Osteosys, KR), and the lean body mass of each of the gastrocnemius muscle (GS) and the tibialis anterior (TA) was measured and calculated from the two-dimensional images of the gastrocnemius muscle (GS) and the tibialis anterior (TA) by a program using the region of interest (ROI).
as §1

C2C12 myotubes [3] = assay: Myotube diameter in TNF-α muscular atrophy cell model (Experimental Example 7); assay type: cell-based, mouse; conditions: TNF-α 10 ng/ml 48 h with oxiracetam 10 μM or 0 μM; relative to non-treated control
Method: A mouse-derived C2C12 cell line was provided from the American Type Culture Collection (ATCC, CRL-1772; Manassas, VA, USA) and cultured at 37° C. in 5% CO2. In the proliferation phase of the cells before differentiation, high concentration glucose Dulbecco's modified Eagle's medium (DMEM) containing 1% penicillin/streptomycin and 10% fetal bovine serum (FBS) medium were used, and in the differentiation induction, the FBS medium was replaced with a 2% horse serum (HS)-containing medium. The C2C12 myoblasts were seeded into a 96 well culture plate and a 6 well culture plate at 2×10^5/well and 5×10^3/well, respectively, and cultured at 37° C. in a CO2 incubator. When the confluency reached approximately 90%, the medium was replaced with 2% horse serum (HS)-containing DMEM to induce differentiation of myoblasts. After 5 days, the C2C12 myotubes that had differentiated were treated with 10 ng/ml TNF-α, which is an inflammatory factor, for 48 hours to cause myotube atrophy, thereby creating a muscular atrophy cell model, TNF-α-treated group (TNF-α). During the TNF-α treatment, 10 μM oxiracetam was treated to create an oxiracetam-treated group (Oxiracetam 10 μM), cells that were not treated during the same period were prepared as a control. Two days after TNF-α and oxiracetam treatment, each of the TNF-α-treated group (TNF-α), the oxiracetam-treated group (Oxiracetam 10 μM) and the control was treated with an ATP detection reagent at room temperature, and then luminescence was measured using a mitochondrial ToxGlo™ assay kit (Promega). In addition, the TNF-α-treated group (TNF-α), the oxiracetam-treated group (Oxiracetam 10 μM) and the control were photographed using an optical microscope and the diameter of a myotube cell in each group were measured and compared. Statistical processing was performed using GraphPad Prism (GraphPad Software Inc., San Diego, CA, USA).

[4] = oxiracetam 30, mirtazapine 10, olanzapine 10 mg/kg/day oral 21 days + dexamethasone, DEXA every 7 days

COc1cccc2c1C(=O)c1c(O)c3c(c(O)c1C2=O)C[C@@](O)(C(=O)CO)C[C@@H]3O[C@H]1C[C@H](N)[C@H](O)[C@H](C)O1 [Doxorubicin, doxorubicin]
diameter of myotube (C2C12 myotubes [1]): significantly decreased

CN1CCN2c3ncccc3Cc3ccccc3C2C1 (centres unmarked) [mirtazapine]
change in grip strength ([2]; oxiracetam 30, mirtazapine 10, olanzapine 10 mg/kg/day oral 21 days + dexamethasone 10 mg/kg i.p. day 7-21): reduced
lean body mass of the gastrocnemius muscle (GS) [2, 4]: not recovered but rather reduced
lean body mass of the tibialis anterior (TA) [2, 4]: not recovered but rather reduced

TNF-α
diameter of a myotube relative to control (C2C12 myotubes [3]): greatly reduced to half the level of the control
